Experimental data reported in US12319652B2, “Salts and solid forms of (R)-1-(5-methoxy-1H-indol-1-yl)-N,N-dimethylpropan-2-amine” (priority 2021, dated 2025).
Like-named read-outs stand apart in the source and are kept apart here.

Tests used:
[1] = Dynamic vapor sorption (DVS); format: physicochemical; conditions: for DVS isotherm type / hygroscopicity: 0 to 90 to 0% RH; for DVS weight gain at 70% RH: 70% RH (printed 70° RH in Example 8); for DVS desorption behaviour (hysteresis): during desorption
Procedure, shortened: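 At 25 °C, 20 to 50 mg sample was dried at 0% RH for 60 minutes, then humidity raised 0-30% in 5% steps and 30-90% in 10% steps, with matching desorption back to 0%. Equilibrium set at dm/dt 0.002%/min; amorphous material was run with fixed 1 hour steps.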

[2] = Solubility determinations in SIF buffers (FaSSIF, FeSSIF, FaSSGF); format: physicochemical; conditions: for Solubility in SIF buffers: FaSSIF, FeSSIF and FaSSGF, 37° C., 24 h, concentration tested 30 mg/ml
Procedure, shortened: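 Salt forms suspended at 30 mg/ml in FaSSIF, FeSSIF or FaSSGF at 37° C. for 24 h, pH kept in range with 1 M HCl or NaOH. Supernatants sampled at 1, 3, 6 and 24 h, centrifuged and quantified by HPLC as compound 1 free base against amorphous compound 1 calibrants; pellets checked by XRPD for form change.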

[3] = format: physicochemical; conditions: for Change of purity profile / CP: 10-day time point
[4] = Amorphous forms and thermal study (glass temperature Tg by DSC/TGA); format: physicochemical; conditions: for Glass temperatures (Tg): amorphous form
[5] = format: physicochemical
Method: Both samples were maintained at 75% RH at 40° C. and monitored by HPLC at time points t=1 h, 3 h, 24 h, 48 h, 7 d, 2 w, 3 w, 4 w and 5 w.
Under the conditions evaluated during this study, XRPD analysis could not be performed as compound 1 Fumarate turned to an oily residue within 3 h under both conditions.
[…] Both samples were maintained under equilibrium humidity of 75% RH at 40° C. and monitored, initially at hourly and then weekly time points.

[6] = Heat-up/cool down (HUCD) crystallization of compound 1 Fumarate in different solvents
[7] = Amorphisation activity: Antisolvent/N2 flow, 50 mg
[8] = Amorphisation activity: Freeze dry, 50 mg
[9] = Amorphisation activity: HFIPA Evaporation o/n, 50 mg
[10] = Amorphisation activity: HFIPA Evaporation, 50 mg

For `COc1ccc2c(ccn2C[C@@H](C)N(C)C)c1.Cl` [Compound 1 HCl], the “DVS isotherm type / hygroscopicity” value [1] was “slightly hygroscopic isotherm”, the “DVS isotherm type / hygroscopicity” value ([1]; listed as Compound 1·HCl) was “slightly hygroscopic isotherm” and the “DVS isotherm type / hygroscopicity” value ([1]; listed as compound 1·HCl) was “slightly hygroscopic”. For the same compound, the “DVS weight gain at 70% RH” value [1] was “ca. 0.2 % w/w”, the “DVS mono and multilayer sorption >80% RH” value ([1]; >80% RH) was “ca. 0.5 % w.w” and the “DVS desorption behaviour (hysteresis)” value [1] was “small water affinity hysteresis”. For the same compound, the “DVS desorption behaviour (hysteresis)” value ([1]; listed as Compound 1·HCl) was “small water affinity hysteresis”, the “Disproportionation in SIF buffers” value [2] was “disproportionation not observed” and the “Solubility in SIF buffers” value ([2]; listed as HC) was “freely soluble”. For the same compound, the “Solubility in SIF buffers” value ([2]; listed as compound 1·HCl) was “Freely soluble”, the “Change of purity profile / CP” value ([3]; 40° C./75% RH) was “no reduction in CP” and the “Change of purity profile / CP” value ([3]; 40° C./75% RH, listed as compound 1·HCl) was “little changed”. The CP ([3]; 40° C./75% RH, over 10 days) was 99.60 % area, the “Stability at 40° C./75% RH” value ([3]; 10 days, listed as compound 1·HCl) was “Chemically and physically stable” and the “Form by XRPD” value [4, 7] was “Form A”. For the same compound, the Outcome [4, 7] was “Crystalline”, the “Form by XRPD” value [4, 8] was “Form A” and the Outcome [4, 8] was “Crystalline”. The “Form by XRPD” value [4, 9] was “Form A”, the Outcome [4, 9] was “Crystalline” and the “Form by XRPD” value [4, 10] was “Form A”. The Outcome [4, 10] was “Crystalline”, the Outcome ([4]; Hot plate heat-up, 20 to 236 ° C.) was “Form A” and the Outcome ([4]; Hot stage plate heat-up, 20 to 260 ° C.) was “Amorphous”. The Outcome ([4]; Hot stage plate heat-up, 20 to 275 ° C.) was “Amorphous”, the Outcome ([4]; Open Pan DSC, 20 to 220 to −20, O/N 20 to 250 ° C.) was “Amorphous” and the Outcome ([4]; Sealed DSC, 20 to 220 to −20 to 250 ° C.) was “Amorphous”. For the same compound, the Outcome ([4]; TGA, 20 to 220 to −20 to 250 ° C.) was “Amorphous” and the “Glass temperatures (Tg)” value [4] was 37 °C.

In the case of `COc1ccc2c(ccn2C[C@@H](C)[NH+](C)C)c1.O=C(O)/C=C/C(=O)O` [Compound 1 fumarate, (R)-1-(5-methoxy-1H-indol-1-yl)-N,N-dimethylpropan-2-amine fumarate], the “Decrease of chemical purity” value ([5]; 75% RH/40° C., 5 week time point) is reported as “approximately 2 % area”, the “Stability of the amorphous phase” value ([5]; 75% RH/40° C., 5 weeks) is reported as “good stability” and the “Time to turn to an oily residue” value ([5]; 75% RH/40° C., both conditions (open vial and double bagged)) is reported as no more than 3 h. The “Preliminary stability evaluation (hydrate formation or degradation)” value ([5]; several weeks at 40° C./75% RH) was “no evidence for hydrate formation or degradation”, the “RH above which pronounced mono, multilayer sorption and probable deliquescence occurred” value [1] was greater than 80 % RH and the “DVS isotherm type / hygroscopicity” value ([1]; listed as Compound 1·Fumarate, fumarate) was “deliquescent type isotherm”. The “DVS isotherm type / hygroscopicity” value ([1]; listed as compound 1·Fumarate, fumarate) was “deliquescent”, the “DVS weight gain at 70% RH” value [1] was “ca. 1 % w/w” and the “Solubility in SIF buffers” value [2] was “freely soluble”. For the same compound, the “Change of purity profile / CP” value ([3]; 40° C./75% RH) was “reduction in CP”, the “HPLC peak RRT 0.93” value ([3]; salt before storage (t = 0)) was 0.36 and the “HPLC peak RRT 1.00 (reference peak)” value ([3]; salt before storage (t = 0)) was 98.38. For the same compound, the “HPLC peak RRT 1.11” value ([3]; salt before storage (t = 0)) was 0.79, the “HPLC peak RRT 1.15” value ([3]; salt before storage (t = 0)) was 0.27 and the “HPLC peak RRT 1.17” value ([3]; salt before storage (t = 0)) was 0.13. For the same compound, the “HPLC peak RRT 1.19” value ([3]; salt before storage (t = 0)) was 0.08, the “HPLC peak RRT 0.93” value ([3]; t = 5 d at 75% RH at 40° C.) was 0.64 and the “HPLC peak RRT 0.98” value ([3]; t = 5 d at 75% RH at 40° C.) was 0.05. For the same compound, the “HPLC peak RRT 1.00 (reference peak)” value ([3]; t = 5 d at 75% RH at 40° C.) was 96.82, the “HPLC peak RRT 1.08” value ([3]; t = 5 d at 75% RH at 40° C.) was 0.05 and the “HPLC peak RRT 1.11” value ([3]; t = 5 d at 75% RH at 40° C.) was 1.06. The “HPLC peak RRT 1.15” value ([3]; t = 5 d at 75% RH at 40° C.) was 0.60, the “HPLC peak RRT 1.17” value ([3]; t = 5 d at 75% RH at 40° C.) was 0.02 and the “HPLC peak RRT 1.18” value ([3]; t = 5 d at 75% RH at 40° C.) was 0.27. The “HPLC peak RRT 1.20” value ([3]; t = 5 d at 75% RH at 40° C.) was 0.20, the “HPLC peak RRT 1.27” value ([3]; t = 5 d at 75% RH at 40° C.) was 0.05 and the “HPLC peak RRT 1.28” value ([3]; t = 5 d at 75% RH at 40° C.) was 0.03. The “HPLC peak RRT 1.39” value ([3]; t = 5 d at 75% RH at 40° C.) was 0.10, the “HPLC peak RRT 1.43” value ([3]; t = 5 d at 75% RH at 40° C.) was 0.06 and the “HPLC peak RRT 1.47” value ([3]; t = 5 d at 75% RH at 40° C.) was 0.06. For the same compound, the “HPLC peak RRT 0.93” value ([3]; t = 10 d at 75% RH at 40° C.) was 0.61, the “HPLC peak RRT 0.98” value ([3]; t = 10 d at 75% RH at 40° C.) was 0.07 and the “HPLC peak RRT 1.00 (reference peak)” value ([3]; t = 10 d at 75% RH at 40° C.) was 97.08. For the same compound, the “HPLC peak RRT 1.08” value ([3]; t = 10 d at 75% RH at 40° C.) was 0.04, the “HPLC peak RRT 1.11” value ([3]; t = 10 d at 75% RH at 40° C.) was 0.96 and the “HPLC peak RRT 1.13” value ([3]; t = 10 d at 75% RH at 40° C.) was 0.05. For the same compound, the “HPLC peak RRT 1.15” value ([3]; t = 10 d at 75% RH at 40° C.) was 0.52, the “HPLC peak RRT 1.18” value ([3]; t = 10 d at 75% RH at 40° C.) was 0.09 and the “HPLC peak RRT 1.19” value ([3]; t = 10 d at 75% RH at 40° C.) was 0.12. For the same compound, the “HPLC peak RRT 1.20” value ([3]; t = 10 d at 75% RH at 40° C.) was 0.15, the “HPLC peak RRT 1.27” value ([3]; t = 10 d at 75% RH at 40° C.) was 0.03 and the “HPLC peak RRT 1.28” value ([3]; t = 10 d at 75% RH at 40° C.) was 0.05. For the same compound, the “HPLC peak RRT 1.34” value ([3]; t = 10 d at 75% RH at 40° C.) was 0.04, the “HPLC peak RRT 1.39” value ([3]; t = 10 d at 75% RH at 40° C.) was 0.08 and the “HPLC peak RRT 1.43” value ([3]; t = 10 d at 75% RH at 40° C.) was 0.04. For the same compound, the “HPLC peak RRT 1.45” value ([3]; t = 10 d at 75% RH at 40° C.) was 0.03, the “HPLC peak RRT 1.47” value ([3]; t = 10 d at 75% RH at 40° C.) was 0.05 and the “Form by XRPD” value [4, 7] was “Amorphous”. For the same compound, the Outcome [4, 7] was “Gum”, the “Form by XRPD” value [4, 8] was “Form A” and the Outcome [4, 8] was “Crystalline”. For the same compound, the Outcome ([4]; Amorphisation activity: Rotary Vac (Methanol), 50 mg) was “Gum”, the Outcome ([4]; Hot plate heat-up, 20 to 165 ° C.) was “Amorphous” and the Outcome ([4]; Hot stage plate heat-up, 20 to 165 ° C.) was “Amorphous”. The Outcome ([4]; Open Pan DSC, 20 to 145 to −20, O/N 20 to 230 ° C.) was “Amorphous”, the Outcome ([4]; Sealed DSC, 20 to 145 to −20 to 230 ° C.) was “Amorphous” and the Outcome ([4]; TGA, 20 to 145 to −20 to 230 ° C.) was “Amorphous”. For the same compound, the “Glass temperatures (Tg)” value [4] was 24 °C, the “Form XRPD (oven dried)” value ([6]; Heptane (5 vol) + Dichloromethane 160 μl) was “Pattern 1” and the “Form XRPD (oven dried)” value ([6]; Heptane (5 vol) + Dioxane 240 μl) was “Pattern 1”. For the same compound, the “Observations (t = 3 d @ 20° C.)” value ([6]; Heptane (5 vol) + Ethanol 180 μl) was “suspension”, the “Observations (t = 0 @ T = 20° C.)” value ([6]; Heptane (5 vol) + Methylethyl ketone 100 μl) was “suspension” and the “Form XRPD (oven dried)” value ([6]; Heptane (5 vol) + tert-Butylmethyl ether 300 μl) was “Pattern 1”. For the same compound, the “Observations (t = 3 d @ 20° C.)” value ([6]; Water (5 vol) + Ethanol 80 μl) was “solution”.
